Experimental data from a melting point compilation (Tetko et al.).

Compound | melting point [°C]
FC(F)OCC(F)(F)C(F)(F)F | -107
CCOC(=O)C1=C(C)NC(C)=C(C(=O)OC)C1c1cccc([N+](=O)[O-])c1 (configuration not stated) | 158
COc1ccc(/C=c2\sc3nc4ccccc4n3c2=O)cc1OC | 220 to 222
CC(=O)OC1(c2ccccc2)Cc2ccccc21 (configuration not stated) | 76
COC(=O)c1ccc(OC)c([N+](=O)[O-])c1 | 111
CC(CCC(=O)O)C1CCC2C3C(=O)C(Br)C4CC(C(=O)O)CCC4(C)C3CC(C(=O)O)C12C (configuration not stated) | 229 to 230
O=C(CI)OC(=O)CI | 43 to 49
N#CCCn1cnc2c(N)ncnc21 | 255
CCCCCCN(C)C(=O)COC(=O)c1ccccc1 | 100
O=Cc1ccccc1Cn1cncn1 | 59
CC(=O)c1ccc(Oc2ccc(Cl)cc2)cc1Cl | 54 to 56
CC(=O)OCC(=O)C1CCC2C3CCC4=CC(=O)CCC4(C)C3CCC12C (configuration not stated) | 157
CCOC(=O)c1cn2c(n1)sc1ccccc12 | 133 to 134
c1ccc(CC(=NNc2cccc(NN=C(Cc3ccccc3)c3ccccc3)c2)c2ccccc2)cc1 | 164
Nc1c(Cl)cc(Br)cc1Cl | 87
CC1(C)OC2CC3C4CCC5=CC(=O)C=CC5(C)C4C(O)CC3(C)C2(C(=O)CO)O1 (configuration not stated) | 274
CN(C)c1nc(-c2cccs2)cc(C(F)(F)F)c1C#N | 118 to 119
CC12CCC3C(CCC4CC(CC(=O)O)=CCC43C)C1CCC2=O (configuration not stated) | 175 to 178
CN=C1SC(CC(=O)O)C(=O)N1C (configuration not stated) | 157 to 159
C#CCN1C(=O)COc2cc(F)c(N3C(=O)C4=C(CCCC4)C3=O)cc21 | 203
O=C(O)c1ccc(-c2ccccc2)s1 | 188 to 192
COC(=O)c1ccnc(N)c1 | 147
O=C(O)c1nc(Cl)c(Cl)c(Cl)c1Cl | 172
CCCCCCCCCCCC(=O)OCCOC(=O)CCCCCCCCCCC | 56.6
OCc1cccc(-c2cccs2)c1 | 46 to 49

Compound | melting point [°C]
O=C(O)CCCCCO | 38 to 40
Cc1ccc(C)c(N/N=C(/C#N)c2nc(C)c(/N=N/c3ccccc3)s2)c1 | 201 to 203
CC(C)C12C=CC(C)(CC1)OO2 (configuration not stated) | 3.3
O=C1NN=C(C(F)(F)F)C1=NNc1cc(Cl)ccc1Cl | 214
O=C(NC(Cc1ccccc1)C(=O)O)OCc1ccccc1 (configuration not stated) | 88.5
Cc1nc(-c2cccc(N=C=O)c2)no1 | 72 to 74
Cc1noc(-c2ccc(C=O)cc2)n1 | 133 to 135
OCC1CCCN2CCCCC12 (configuration not stated) | 70
O=C(O)c1[nH]c2ccc([N+](=O)[O-])cc2c1-c1ccccc1 | 290
CC(C)Oc1cc(-n2nc(C(C)(C)C)oc2=O)c(Cl)cc1Cl | 90
Brc1ccc2oc3ccccc3c2c1 | 110
Cc1cccc2c1C/C2=N/Nc1ccc([N+](=O)[O-])cc1[N+](=O)[O-] | 227
CC(=O)C=CC(=O)O | 124
Nc1ccc(C(F)(F)F)cc1N | 56 to 58
CCC(C)(C(N)=O)c1ccccc1 (configuration not stated) | 101
CCOC(=O)c1sc2sc(C(=O)OCC)c(NC(=O)c3ccccc3)c2c1NC(=O)c1ccccc1 | 286
O=S(=O)(Cl)c1cc(Br)cc2c1OCC2 | 121 to 122
COc1ccc(C2Cc3ccccc3C(=O)O2)cc1 (configuration not stated) | 108
CC(=O)c1ccc(O)c(C(F)(F)F)c1 | 176
Cc1cc(F)ccc1N | 14.2
CCC(C=C1C(=O)C2(C)CCC1C2(C)C)C(=O)O (configuration not stated) | 118
Cn1c(=O)n(-c2cccc(Cl)c2)c(=O)c2c3c(sc21)CCCC3 | 240 to 241
CCC(C)(S(=O)(=O)CC)S(=O)(=O)CC | 76
N#Cc1c(-c2ccc(Br)cc2)cc2c(C#N)c(=N)n(C(=O)c3ccccc3)n2c1N | 190
O=C(O)c1cc2ccccc2cc1C(=O)O | 238

Compound | melting point [°C]
O=[N+]([O-])c1ccc(-c2nnc3n2CN(c2ccccc2)CS3)cc1 | > 320
CN1CCN(C(=S)SSC(=S)N2CCN(C)CC2)CC1 | 142 to 143
CCCCOC(=O)C1=C(C)NC(C)=C(C(=O)OCCCC)C1c1ccco1 | 87
O=Cc1ccc(OCc2ccccc2)c(Cl)c1 | 93 to 94
CC(F)(F)CCl | -56.2
COC(=O)c1c(C)n[nH]c1C | 83
C/C(=N\CCO)c1c(O)c2ccccc2n(-c2ccccc2)c1=O | 201 to 202
O=C1OCCOC(=O)c2ccccc2C(=O)OCCOC(=O)c2ccccc21 | 192
CC(=O)c1ccc(N2CCOCC2)cc1 | 94 to 98
Cc1nc(CC(=O)O)c(C)s1 | 110 to 113
CC(=O)Oc1c[nH]c2ccccc12 | 129
NNc1cc(C(F)(F)F)ccc1Cl | 64 to 68
COc1ccccc1C1Nn2c(nnc2-c2ccc([N+](=O)[O-])cc2)S1 (configuration not stated) | 152
Cc1cc(Br)cc(C)c1O | 76
COC1C(OC(=O)C=CC=CC=CC=CC(=O)O)CCC2(CO2)C1C1(C)OC1CC=C(C)C (configuration not stated) | 194
CC(=O)Nc1ccc(C=NNC(N)=S)cc1 | 225 to 230
COC(=O)CC1CCC(NC(=O)OC(C)(C)C)CC1 (configuration not stated) | 81
N#Cc1ccnc(N)c1 | 150
OC(C(F)(F)F)(C(F)(F)F)C(O)(C(F)(F)F)C(F)(F)F | 18 to 20
CC1=CC2OC3C(O)CC(C)(C34CO4)C2(CO)C(O)C1=O (configuration not stated) | 152
CC(C)(C#N)OC1OC(CO)C(O)C(O)C1O (configuration not stated) | 145
O=Cc1cccc(CN2CCOCC2)c1 | 63 to 64
CC(C(=O)O)C1CCC2C3CCC4CC(=O)CCC4(C)C3CCC12C (configuration not stated) | 253
Oc1c(CN2CCCCC2)ccc2ccccc12 | 134 to 136
CCCCCCNC | -31

Compound | melting point [°C]
O=Cc1ccc(-c2cccc([N+](=O)[O-])c2)o1 | 156 to 158
O=c1n(-c2ccccc2)c(=O)n(-c2ccccc2)c(=O)n1-c1ccccc1 | 285
CCCC1C(=O)N2C(N(C)C)=Nc3ccc(C)cc3N2C1=O (configuration not stated) | 228
Nc1ncnc2c1ncn2C1(CO)OC(CO)C(O)C1O (configuration not stated) | 212
Fc1cccc(C(F)(F)F)c1CBr | 44
C/C(=N\c1cccc(C(=O)O)c1)c1c(O)c2ccccc2n(-c2ccccc2)c1=O | 242 to 243
OC1COC(O)C(O)C1O (configuration not stated) | 152 to 160
COc1cc(-c2nnc3sc(-c4cccnc4)nn23)cc(OC)c1OC | 175
CC(C)(C)c1cc([N+](=O)[O-])c(O)c([N+](=O)[O-])c1 | 95
O=S(=O)(Cl)Cc1ccc(Cl)cc1 | 95
FC(F)(F)CCCl | -106
CCOC(=O)CCC(C)C1CCC2C3C(=O)C(Br)C4CC(OC(C)=O)CCC4(C)C3CC(OC(C)=O)C12C (configuration not stated) | 132 to 134
O=C(O)CCc1ccc(CCC(=O)O)cc1 | 229 to 233
c1ccc2c(c1)CCc1ccccc1C1(OCCO1)C21OCCO1 | 111
CCOc1ccc(C(NC(=O)c2ccccc2)NC(=O)c2ccccc2)cc1OC | 211
Cc1nc2scc(-c3ccccc3)c2c(=O)n1NC(=O)c1cccc(C(F)(F)F)c1 | 134 to 138
Nc1ccc(I)cn1 | 128
O=[N+]([O-])c1ccc(C(O)C(O)CO)cc1 (configuration not stated) | 93 to 97
O=C(Nc1ccc([N+](=O)[O-])cc1[N+](=O)[O-])C(F)(F)C(F)(F)C(F)(F)C(F)(F)C(F)(F)C(F)(F)C(F)(F)C(F)(F)F | 125
Nc1cccc2cc(O)ccc12 | 191
O=C1CCCCCO1 | -1
COc1ccccc1NC(=S)c1cc(C(C)(C)C)c(O)c(C(C)(C)C)c1 | 185 to 186
Oc1ccc2c(O)c3ccccc3cc2c1O | 208
CNC(=O)COC1CCN(C(=O)OC(C)(C)C)CC1 | 95
N#C/C(=N\Nc1cccc(O)c1)c1nc2ccccc2s1 | 175

Compound | melting point [°C]
CC(=NO)c1ccccn1 | 117 to 119
O=C1OC(c2ccc([N+](=O)[O-])cc2)Cc2ccccc21 (configuration not stated) | 184
Brc1c(Br)c(Br)c2c(c1Br)Oc1c(Br)c(Br)c(Br)c(Br)c1O2 | 376
CCC(C)(C)C(=O)O | -14
NC1=C(c2ccccc2)C(=O)c2ccccc21 | 270 to 273
ON=C(O)c1ccccc1O | 177 to 185
CC=C1CC(C)C(O)(CO)C(=O)OCC2=CCN3CCC(OC1=O)C23 (configuration not stated) | 212
C=CCOC1(C#Cc2ccccc2)Cc2ccccc21 (configuration not stated) | 50
O=C1NC(=O)[C@@H]2CC=CC[C@H]12 | 131 to 138
CC(C)OC(=O)c1cc(C(=O)OC(C)C)cc([N+](=O)[O-])c1 | 65
O=C1CC[C@@H](COC(c2ccccc2)(c2ccccc2)c2ccccc2)O1 | 148 to 152
Nc1c(Cl)cc(Cl)cc1I | 80
O=C(C=Nc1ccccc1)c1ccc(C(=O)C=Nc2ccccc2)cc1 | 155
Cc1cc2ccccc2s1 | 52
Cc1cc(Cl)ccc1N | 30.3
CC=CC(C)(C)C | -115
OCCc1ccc2ccccc2n1 | 103
CNC(=O)c1ccccc1N | 75 to 76
COC(=O)c1ccccc1S(=O)(=O)NC(=O)Nc1nc(OC(F)F)cc(OC(F)F)n1 | 196
O=C(O)c1c[nH]c2ccccc12 | 200 to 203
Clc1ccnc2ccccc12 | 34.5
Oc1cccc(S)c1 | 16.5
